The source of these data is patent publication US9499495B2, “Quinazolines and azaquinazolines as dual inhibitors of RAS/RAF/MEK/ERK and PI3K/AKT/PTEN/mTOR pathways” (Asana Biosciences, LLC, priority 2013, dated 2016).

The structures appear in SMILES notation.

For one assay, the target named is T1, PI3Kα (Homo sapiens, UniProt P42336).
T1 construct: made in house; host or cells: SF9 cells
Put plainly: PI3 Kinase alpha TR-FRET assay. The format is biochemical. A digest of the protocol: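 Purified Sf9-expressed p110/p85α (5 ng) was pre-incubated with compound and PIP2 at rt, then ATP was added (PIP2 and ATP both 40 μM) for a 30 min reaction. PIP3 was detected by TR-FRET displacement of biotin-PIP3, and IC50 was taken from dose-response curves of the 665/615 nm emission ratio.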
For orientation: In TR-FRET formats the signal depends on donor and acceptor labels being close together.

A further assay concerns the target T2, B-RAFV600E (Homo sapiens, UniProt P15056, V600E).
T2 construct: purchased Millipore, USA 14-557
Put plainly: B-RAFV600E radiometric assay. The format is biochemical. Conditions: read-out: Kinase assay B-Raf. A digest of the protocol: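 B-RAFV600E was preincubated 45 min at rt with compound in 1% DMSO. MEK-K97M (0.5 μg), 5 μM final cold ATP and [γ-32P]ATP were then added for 2 h at rt. Phosphorylated MEK was captured on P81 paper and scintillation-counted; IC50 came from a sigmoidal dose-response fit.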

Another assay has as its system pERK in A375 cells. Put plainly: In Cell Western (ICW) assay, pERK in A375 cells. The assay is classed as cell-based. Conditions: Homo sapiens, A-375, 3 h treatment. A digest of the protocol: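 After a 3 h compound treatment at 37 °C, fixed RKO or A375 cells were probed for phospho-ERK1/2 (T202/Y204), phospho-S6RP or phospho-AKT T308 and detected with a Eu-tagged anti-rabbit antibody (ex 340/em 615 nm), with Hoechst signal as the cell-number correction. Inhibition was referenced to DMSO, and IC50 values came from sigmoidal dose-response curves.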

T2 sequence (P15056 416-766 V600E limits assumed): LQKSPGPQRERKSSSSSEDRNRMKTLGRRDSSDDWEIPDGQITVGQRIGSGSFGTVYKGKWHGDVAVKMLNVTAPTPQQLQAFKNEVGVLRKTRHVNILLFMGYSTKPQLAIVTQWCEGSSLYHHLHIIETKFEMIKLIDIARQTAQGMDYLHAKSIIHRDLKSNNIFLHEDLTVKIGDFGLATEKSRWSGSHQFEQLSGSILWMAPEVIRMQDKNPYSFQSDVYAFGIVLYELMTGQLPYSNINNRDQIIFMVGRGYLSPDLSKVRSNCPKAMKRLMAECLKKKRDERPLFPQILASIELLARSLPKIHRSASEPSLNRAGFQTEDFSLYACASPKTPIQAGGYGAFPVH
T1 sequence (P42336 whole entry, species assumed): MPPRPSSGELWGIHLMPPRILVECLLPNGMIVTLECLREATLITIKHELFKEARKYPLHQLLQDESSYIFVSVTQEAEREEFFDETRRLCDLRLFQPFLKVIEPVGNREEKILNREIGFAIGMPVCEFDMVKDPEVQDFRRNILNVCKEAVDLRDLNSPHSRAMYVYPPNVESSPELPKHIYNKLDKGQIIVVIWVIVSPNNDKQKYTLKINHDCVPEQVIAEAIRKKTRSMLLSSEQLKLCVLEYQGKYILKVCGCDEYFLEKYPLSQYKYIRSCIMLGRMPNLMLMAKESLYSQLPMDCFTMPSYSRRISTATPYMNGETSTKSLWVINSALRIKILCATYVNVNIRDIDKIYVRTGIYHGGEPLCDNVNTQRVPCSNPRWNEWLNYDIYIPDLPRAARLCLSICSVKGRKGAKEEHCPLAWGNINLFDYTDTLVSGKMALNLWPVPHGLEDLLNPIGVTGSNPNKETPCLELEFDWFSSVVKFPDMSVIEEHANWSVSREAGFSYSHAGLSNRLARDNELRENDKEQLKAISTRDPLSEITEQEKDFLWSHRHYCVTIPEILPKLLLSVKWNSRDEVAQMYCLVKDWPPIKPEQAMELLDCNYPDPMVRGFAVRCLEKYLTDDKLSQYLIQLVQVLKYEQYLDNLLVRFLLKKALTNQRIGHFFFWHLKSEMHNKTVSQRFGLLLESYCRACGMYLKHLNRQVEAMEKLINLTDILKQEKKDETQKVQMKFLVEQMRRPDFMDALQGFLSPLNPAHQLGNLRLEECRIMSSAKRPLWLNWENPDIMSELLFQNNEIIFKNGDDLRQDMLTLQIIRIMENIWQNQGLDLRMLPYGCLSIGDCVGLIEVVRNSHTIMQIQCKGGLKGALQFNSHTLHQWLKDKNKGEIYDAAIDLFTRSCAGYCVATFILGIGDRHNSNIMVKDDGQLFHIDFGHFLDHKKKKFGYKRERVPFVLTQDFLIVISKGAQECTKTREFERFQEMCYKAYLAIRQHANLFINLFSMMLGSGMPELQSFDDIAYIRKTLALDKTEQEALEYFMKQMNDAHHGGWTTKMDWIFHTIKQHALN
T1 sequence (P27986 whole entry partner, species assumed): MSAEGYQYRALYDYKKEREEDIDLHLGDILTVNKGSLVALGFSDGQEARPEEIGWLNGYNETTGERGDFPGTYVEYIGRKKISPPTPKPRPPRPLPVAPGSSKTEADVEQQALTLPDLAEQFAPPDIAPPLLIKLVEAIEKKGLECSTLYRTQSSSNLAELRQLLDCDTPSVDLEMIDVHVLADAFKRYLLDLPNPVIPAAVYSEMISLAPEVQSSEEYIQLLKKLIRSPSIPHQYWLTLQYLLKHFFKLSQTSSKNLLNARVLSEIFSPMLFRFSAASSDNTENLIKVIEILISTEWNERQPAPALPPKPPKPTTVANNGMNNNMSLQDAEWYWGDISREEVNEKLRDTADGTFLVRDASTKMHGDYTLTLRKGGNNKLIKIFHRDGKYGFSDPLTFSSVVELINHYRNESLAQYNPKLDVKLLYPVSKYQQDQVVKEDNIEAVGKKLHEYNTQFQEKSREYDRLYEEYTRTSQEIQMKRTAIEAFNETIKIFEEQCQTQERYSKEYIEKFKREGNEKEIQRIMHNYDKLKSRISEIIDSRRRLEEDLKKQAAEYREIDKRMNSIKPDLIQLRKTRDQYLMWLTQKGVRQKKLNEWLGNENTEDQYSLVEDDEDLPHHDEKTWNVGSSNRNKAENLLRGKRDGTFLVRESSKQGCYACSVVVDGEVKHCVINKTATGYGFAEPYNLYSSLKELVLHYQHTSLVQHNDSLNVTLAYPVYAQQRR

Take `O=S(=O)(CCCF)Nc1cccc(-c2ccc3nc(-c4ccc(NCCO)nc4)nc(N4CCOCC4)c3n2)c1F` [Example 99, 3-fluoro-N-(2-fluoro-3-(2-(6-((2-hydroxyethyl)amino)pyridin-3-yl)-4-morpholinopyrido[3,2-d]pyrimidin-6-yl)phenyl)propane-1-sulfonamide]: the IC50 fell in the range of 100 to 1000 nM on PI3Kα, 1 to 100 nM at B-RAFV600E and 1 to 100 nM in the assay with pERK in A375 cells.
With `CCCS(=O)(=O)Nc1cccc(-c2ccc3nc(-c4ccc(N)nc4)nc(N4CCOCC4)c3n2)c1F` [Example 86, N-(3-(2-(6-aminopyridin-3-yl)-4-morpholinopyrido[3,2-d]pyrimidin-6-yl)-2-fluorophenyl)propane-1-sulfonamide], the IC50 fell in the range of 1 to 100 nM against PI3Kα, 100 to 1000 nM on B-RAFV600E and 100 to 1000 nM in the assay with pERK in A375 cells.
As to `Nc1ccc(-c2nc(N3CCOCC3)c3nc(-c4cccc(NS(=O)(=O)c5cc(F)ccc5F)c4F)ccc3n2)cn1` [Example 92, N-(3-(2-(6-aminopyridin-3-yl)-4-morpholinopyrido[3,2-d]pyrimidin-6-yl)-2-fluorophenyl)-2,5-difluorobenzenesulfonamide], the IC50 on PI3Kα, on B-RAFV600E and in the assay on pERK in A375 cells was 1 to 100 nM in each case.
In the case of `Cc1cc(-c2nc(N3CCOCC3)c3nc(-c4cccc(NS(=O)(=O)CCCF)c4F)ccc3n2)cnc1N` [Example 90, N-(3-(2-(6-amino-5-methylpyridin-3-yl)-4-morpholinopyrido[3,2-d]pyrimidin-6-yl)-2-fluorophenyl)-3-fluoropropane-1-sulfonamide], the IC50 against PI3Kα fell in the range of 100 to 1000 nM; at B-RAFV600E it was 1 to 100 nM; in the assay on pERK in A375 cells, 100 to 1000 nM.
Take `Nc1cc(F)c(-c2nc(N3CCOCC3)c3nc(-c4cccc(NS(=O)(=O)CCCF)c4F)ccc3n2)cn1` [Example 102, N-(3-(2-(6-amino-4-fluoropyridin-3-yl)-4-morpholinopyrido[3,2-d]pyrimidin-6-yl)-2-fluorophenyl)-3-fluoropropane-1-sulfonamide]: the IC50 against PI3Kα is 1 to 100 nM; on B-RAFV600E, 1 to 100 nM; in the assay with pERK in A375 cells, 100 to 1000 nM.
On to `COc1cc(-c2cccc(NS(=O)(=O)CCCF)c2F)cc2c(N3CCOC[C@H]3C)nc(-c3cnc(N)nc3)nc12` [Example 43, (R)-N-(3-(2-(2-aminopyrimidin-5-yl)-8-methoxy-4-(3-methylmorpholino)quinazolin-6-yl)-2-fluorophenyl)-3-fluoropropane-1-sulfonamide], for which the figures for the IC50 against PI3Kα, on B-RAFV600E and with pERK in A375 cells were 100 to 1000 nM, 1 to 100 nM and 1 to 100 nM, respectively.
As to `Nc1ncc(-c2nc(N3CCOCC3)c3nc(-c4cccc(NS(=O)(=O)CCCF)c4F)ccc3n2)cn1` [Example 87, N-(3-(2-(2-aminopyrimidin-5-yl)-4-morpholinopyrido[3,2-d]pyrimidin-6-yl)-2-fluorophenyl)-3-fluoropropane-1-sulfonamide], the IC50 at PI3Kα lay in the range of 1 to 100 nM; on B-RAFV600E it was 1 to 100 nM; with pERK in A375 cells it was 100 to 1000 nM.
In the case of `Nc1cc(C(F)(F)F)c(-c2nc(N3CCOCC3)c3nc(-c4cccc(NS(=O)(=O)CCCF)c4F)ccc3n2)cn1` [Example 94, N-(3-(2-(6-amino-4-(trifluoromethyl)pyridin-3-yl)-4-morpholinopyrido[3,2-d]pyrimidin-6-yl)-2-fluorophenyl)-3-fluoropropane-1-sulfonamide], the IC50 against PI3Kα, on B-RAFV600E and with pERK in A375 cells was 1 to 100 nM throughout.
Turning to `CCCS(=O)(=O)Nc1cccc(-c2ccc3nc(-c4cnc(N)nc4)nc(N4CCOCC4)c3n2)c1F` [Example 7, N-(3-(2-(2-aminopyrimidin-5-yl)-4-morpholinopyrido[3,2-d]pyrimidin-6-yl)-2-fluorophenyl)propane-1-sulfonamide], the IC50 was 1 to 100 nM at PI3Kα, 100 to 1000 nM on B-RAFV600E and 100 to 1000 nM in the assay on pERK in A375 cells.
For the molecule `C[C@H]1COCCN1c1nc(-c2cnc(N)cc2C(F)(F)F)nc2ccc(-c3cccc(NS(=O)(=O)CCCF)c3F)nc12` [Example 108, (S)-N-(3-(2-(6-amino-4-(trifluoromethyl)pyrldin-3-yl)-4-(3-methylmorpholino)pyrido[3,2-d]pyrimidin-6-yl)-2-fluorophenyl)-3-fluoropropane-1-sulfonamide], the IC50 on PI3Kα, at B-RAFV600E and in the assay with pERK in A375 cells was 1 to 100 nM in each case.
With `Nc1ccc(-c2nc(N3CCOCC3)c3nc(-c4cccc(NS(=O)(=O)CCCF)c4F)ccc3n2)cn1` [Example 88, N-(3-(2-(6-aminopyridin-3-yl)-4-morpholinopyrido[3,2-d]pyrimidin-6-yl)-2-fluorophenyl)-3-fluoropropane-1-sulfonamide], the IC50 against PI3Kα lay within 1 to 100 nM; at B-RAFV600E, 1 to 100 nM; with pERK in A375 cells, 100 to 1000 nM.
As for `CNC(=O)Nc1ccc(-c2nc(N3CCOCC3)c3cc(-c4cccc(NS(=O)(=O)CCCF)c4F)cc(OC)c3n2)cn1` [Example 39, 3-fluoro-N-(2-fluoro-3-(8-methoxy-2-(6-(3-methylureido)pyridin-3-yl)-4-morpholinoquinazolin-6-yl)phenyl)propane-1-sulfonamide], the IC50 at PI3Kα was in the range of 100 to 1000 nM; at B-RAFV600E, 1 to 100 nM; with pERK in A375 cells it was 1 to 100 nM.
For the molecule `CNc1ccc(-c2nc(N3CCOCC3)c3nc(-c4cccc(NS(=O)(=O)CCCF)c4F)ccc3n2)cn1` [Example 113, 3-fluoro-N-(2-fluoro-3-(2-(6-(methylamino)pyridin-3-yl)-4-morpholinopyrido[3,2-d]pyrimidin-6-yl)phenyl)propane-1-sulfonamide], the IC50 against PI3Kα, at B-RAFV600E and in the assay with pERK in A375 cells was 1 to 100 nM throughout.
As for `C[C@H]1COCCN1c1nc(-c2cnc(N)cc2F)nc2ccc(-c3cccc(NS(=O)(=O)CCCF)c3F)nc12` [Example 129, (S)-N-(3-(2-(6-amino-4-fluoropyridin-3-yl)-4-(3-methylmorpholino)pyrido[3,2-d]pyrimidin-6-yl)-2-fIuorophenyl)-3-fluoropropane-1-sulfonamide], the IC50 against PI3Kα lay within 1 to 100 nM; on B-RAFV600E, 1 to 100 nM; in the assay on pERK in A375 cells, 100 to 1000 nM.
Regarding `COc1cc2nc(-c3cnc(N)nc3)nc(N3CCOCC3)c2cc1-c1cccc(NS(=O)(=O)CCCF)c1F` [Example 11, N-(3-(2-(2-aminopyrimidin-5-yl)-7-methoxy-4-morpholinoquinazolin-6-yl)-2-fluorophenyl)-3-fluoropropane-1-sulfonamide], the IC50 lay within 100 to 1000 nM at PI3Kα, 1 to 100 nM on B-RAFV600E and 1 to 100 nM in the assay with pERK in A375 cells.
`O=S(=O)(CCCF)Nc1cccc(-c2ccc3nc(-c4ccc(NCCCO)nc4)nc(N4CCOCC4)c3n2)c1F` [Example 111, 3-fluoro-N-(2-fluoro-3-(2-(6-((3-hydroxypropyl)amino)pyridin-3-yl)-4-morpholinopyrido[3,2-d]pyrimidin-6-yl)phenyl)propane-1-sulfonamide]: the figures for the IC50 on PI3Kα, on B-RAFV600E and with pERK in A375 cells were 100 to 1000 nM, 1 to 100 nM and 100 to 1000 nM, respectively.
For `Nc1ccc(-c2nc(N3CCOCC3)c3nc(-c4cccc(NS(=O)(=O)c5c(F)cccc5F)c4F)ccc3n2)cn1` [Example 95, N-(3-(2-(6-aminopyridin-3-yl)-4-morpholinopyrido[3,2-d]pyrimidin-6-yl)-2-fluorophenyl)-2,6-difluorobenzenesulfonamide], the IC50 at PI3Kα fell in the range of 100 to 1000 nM; at B-RAFV600E it was 1 to 100 nM; with pERK in A375 cells, 100 to 1000 nM.
Consider `C[C@@H]1COCCN1c1nc(-c2cnc(N)nc2)nc2ccc(-c3cccc(NS(=O)(=O)CCCF)c3F)nc12` [Example 97, (R)-N-(3-(2-(2-aminopyrimidin-5-yl)-4-(3-methylmorpholino)pyrido[3,2-d]pyrimidin-6-yl)-2-fluorophenyl)-3-fluoropropane-1-sulfonamide], for which the IC50 against PI3Kα, at B-RAFV600E and in the assay on pERK in A375 cells was 1 to 100 nM in each case.
As for `Nc1ncc(-c2nc(N3CCOCC3)c3nc(-c4cccc(NS(=O)(=O)c5cc(F)ccc5F)c4F)ccc3n2)cn1` [Example 93, N-(3-(2-(2-aminopyrimidin 5-yl)-4-morpholinopyrido[3,2-d]pyrimidin-6-yl)-2-fluorophenyl)-2,5-difluorobenzenesulfonamide], the IC50 lay within 1 to 100 nM at PI3Kα, 1 to 100 nM on B-RAFV600E and 100 to 1000 nM in the assay on pERK in A375 cells.
As for `COc1cc(-c2cccc(NS(=O)(=O)CCCF)c2F)cc2c(N3CCOC[C@H]3C)nc(-c3cnc(N)cc3F)nc12` [Example 135, (R)-N-(3-(2-(6-amino-4-fluoropyridin-3-yl)-8-methoxy-4-(3-methylmorpholino)quinazolin-6-yl)-2-fluorophenyl)-3-fluoropropane-1-sulfonamide], the IC50 on PI3Kα lay in the range of 1000 to 10000 nM; on B-RAFV600E, 1 to 100 nM; in the assay with pERK in A375 cells, 1 to 100 nM.
Consider `COc1cc(-c2c(F)ccc(NS(=O)(=O)CCCF)c2F)cc2c(N3CCOCC3)nc(-c3ccc(N)nc3)nc12` [Example 79, N-(3-(2-(6-aminopyridin-3-yl)-8-methoxy-4-morpholinoquinazolin-6-yl)-2,4-difluorophenyl)-3-fluoropropane-1-sulfonamide], for which the IC50 against PI3Kα lay within 100 to 1000 nM; on B-RAFV600E it was 1 to 100 nM; with pERK in A375 cells it was 1 to 100 nM.
